Measured values reported in patent US4463003A, “Cephem compounds” (Fujisawa Pharmaceutical Co., Ltd., priority 1982, dated 1984).
In brackets after ≈: the same amount, converted by molar mass.

What was measured:
[1] = Urinary excretion after oral administration in rats; format: in vivo; details: rat, urine, 100 mg/kg, 0 to 24 hours, bioassay, read-out: Urinary recovery in 24 hours (%)
Protocol: Urine of rats was collected with a urine collector at 0 to 6, and 6 to 24 hours after oral administration of 100 mg/kg of the test antibiotic. The antibiotic levels in the urine samples were bioassayed with the standard solution prepared with M/15 phosphate buffer (pH 7.0) and the urinary recovery in 24 hours was calculated.

[2] = system: Proteus vulgaris 2; test: Minimal inhibitory concentrations, two-fold agar-plate dilution method; format: cell-based; details: HI-agar, 37° C., 20 hours
Protocol: (§1) (A) Minimal inhibitory concentrations In vitro antibacterial activity was determined by the two-fold agar-plate dilution method as described below. One loopful of an overnight culture of each test strain in Trypticase-soy broth (10^8 viable cells per ml) was streaked on heart infusion agar (HI-agar) containing graded concentrations of representative test compound, and the minimal inhibitory concentration (MIC) was expressed in terms of μg/ml after incubation at 37° C. for 20 hours.

[3] = system: Proteus mirabilis 18; test: as above; format: cell-based; details: HI-agar, 37° C., 20 hours
Protocol: as §1

[4] = in vivo; details: rat, po, 100 mg/kg
Protocol: Rats anesthetized with pentobarbital were fixed in supine position, and a polyethylene cannula was inserted into the bile duct. Bile samples were collected at 0 to 3, 3 to 6, and 6 to 24 hours after oral administration of 100 mg/kg of the test antibiotic. The antibiotic levels in the bile samples were bioassayed with the standard solution prepared with M/15 phosphate buffer (pH 7.0) and the biliary recovery in 24 hours were calculated.

dose excreted at 24 h [1]: 10.6%
MIC [2]: 0.05 µg/mL (≈ 0.0864 µM)
MIC [3]: 0.05 µg/mL (≈ 0.0864 µM)
dose excreted at 24 h [4]: 12.6%
SMILES: O=C(O)CO/N=C(\C(=O)NC1C(=O)N2C(C(=O)O)=C(CSc3ccc4nnnn4n3)CSC12)c1ncsn1 (stereo not drawn) [Compound .circle.A, 7-[2-Carboxymethoxyimino-2-(1,2,4-thiadiazol-3-yl)acetamido]-3-(tetrazolo[1,5-b]pyridazin-6-yl)thiomethyl-3-cephem-4-carboxylic acid (syn isomer)]
